The values that follow come from PMC10288853 (Frontiers in Oncology, 2023).

“And” between values parts separate entries of the source, which are not always exact repeats. Equal entries are not always repeated.

Series [1] in a line: Plasma pharmacokinetics by LC-MS/MS. Conditions: for AUC(0-t) / Cmax / Tmax: human, plasma, oral; for Cmax: Median Cmax [Min; for Tmax: Median Tmax [Min.
Method: (§1) Samples were collected on days 1, 8, 15 and 22 of cycle 1, and pre-dose on day 1 of cycles 2 through 6. Plasma concentrations were measured using a validated liquid chromatography-tandem mass spectrometry assay. The lower limit of quantification (LLOQ) was 3.0 ng/mL for sotrastaurin and its metabolite AEE800. […] Concentrations below the LLOQ were treated as zero in summary statistics.
(§2) The PK analyses used the actual dose received for each particular PK profile. Parameters relating to the PK profile (e.g., AUC and Cmax) were summarized for data collected on C1D1 and C1D15.
Series [2] has as its system patients with metastatic uveal melanoma. In words: Safety and tolerability: adverse events in phase Ib patients. The settings on record: given in the combination, all patients.
Method: Treated patients were assessed for toxicity by physical examinations on a weekly basis during cycle 1 and on day 1 of each subsequent cycle, with laboratory assessments and ECGs performed on cycle 1 day 1, cycle 1 day 15, and on day 1 of each subsequent cycle. Patients underwent imaging studies for response evaluation during screening and after every 2 cycles of treatment.
For series [3] the following is noted: human, in vivo.
Method: as §1, §2
Series [4] can be described thus: clinical. Conditions: human, in vivo, median AUC0-8hr of sotrastaurin.
Method: as §1, §2
In series [5] the test system is metastatic uveal melanoma. Details: method as in PMID 34551229, PMID 35254876. Conditions: previously untreated HLA-A*0201 positive patients, versus best alternative care; ref [6], [7]; cited from earlier work.
Setting [6] is: b.i.d. dosing in combination with sotrastaurin.
The mark [7] stands for this setting: Max], plasma binimetinib, 2nd section, Cycle 1 Day 1 (C1D1), Dose Level 1: AEB071 150 mg bid and MEK162 45 mg bid.
Setting [8] is: Max], plasma binimetinib, 2nd section, Cycle 1 Day 1 (C1D1), Dose Level 3: AEB071 300 mg bid and MEK162 30 mg bid.
Setting [9] is: Max], plasma binimetinib, 2nd section, Cycle 1 Day 1 (C1D1), Dose Level 4: AEB071 300 mg bid and MEK162 45 mg bid.
The mark [10] stands for this setting: Max], plasma binimetinib, 2nd section, Cycle 1 Day 1 (C1D1), Dose Level 5: AEB071 350 mg bid and MEK162 30 mg bid.
[11] abbreviates: Max], plasma binimetinib, 2nd section, Cycle 1 Day 1 (C1D1), Dose Level 6: AEB071 400 mg bid and MEK162 30 mg bid.
Where [12] appears, read: Max], plasma binimetinib, Cycle 1 Day 1 (C1D1), Dose Level 1: AEB071 150 mg bid and MEK162 45 mg bid.
[13] abbreviates: Max], plasma binimetinib, Cycle 1 Day 1 (C1D1), Dose Level 2: AEB071 200 mg bid and MEK162 45 mg bid.
The mark [14] stands for this setting: Max], plasma binimetinib, Cycle 1 Day 1 (C1D1), Dose Level 3: AEB071 300 mg bid and MEK162 30 mg bid.
[15] abbreviates: Max], plasma binimetinib, Cycle 1 Day 1 (C1D1), Dose Level 4: AEB071 300 mg bid and MEK162 45 mg bid.
The mark [16] stands for this setting: Max], plasma binimetinib, Cycle 1 Day 1 (C1D1), Dose Level 5: AEB071 350 mg bid and MEK162 30 mg bid.
The mark [17] stands for this setting: Max], plasma binimetinib, Cycle 1 Day 1 (C1D1), Dose Level 6: AEB071 400 mg bid and MEK162 30 mg bid.

In the case of `Cn1cnc2c(F)c(Nc3ccc(Br)cc3F)c(C(=O)NOCCO)cc21` [binimetinib], the “median RACC of binimetinib, other three dose levels lower than or close to 1” value in series [1] (setting [6]) was 0.76 and 0.78 and 1.08. Also, in series [1] (setting [6]), the “median RACC of binimetinib, three dose levels much higher than 1” value is 1.34 and 1.42 and 1.54. Also, the AUC(0-t) (in general, exposure summed from dosing to a finite time, without extrapolation to infinity) in series [1] (30 mg, median AUC0-8hr range of binimetinib, cycle 1 day 15, binimetinib 30 mg b.i.d. with varying doses of sotrastaurin) is 1210 to 1450 ng·h/mL; in series [1] (45 mg, median AUC0-8hr range of binimetinib, cycle 1 day 15, binimetinib 45 mg b.i.d. with varying doses of sotrastaurin), 1480 to 2140 ng·h/mL; in series [1] (Median AUC0–8hr [Min, Max], plasma binimetinib, 2nd section, Cycle 1 Day 1 (C1D1), Dose Level 1: AEB071 150 mg bid and MEK162 45 mg bid) it was 2000 ng·h/mL; in series [1] (Median AUC0–8hr [Min, Max], plasma binimetinib, 2nd section, Cycle 1 Day 1 (C1D1), Dose Level 3: AEB071 300 mg bid and MEK162 30 mg bid), 1210 ng·h/mL; in series [1] (Median AUC0–8hr [Min, Max], plasma binimetinib, 2nd section, Cycle 1 Day 1 (C1D1), Dose Level 4: AEB071 300 mg bid and MEK162 45 mg bid) it was 1480 ng·h/mL; in series [1] (Median AUC0–8hr [Min, Max], plasma binimetinib, 2nd section, Cycle 1 Day 1 (C1D1), Dose Level 5: AEB071 350 mg bid and MEK162 30 mg bid) it was 1250 ng·h/mL. For the same compound, the exposure AUC(0-t) is 1450 ng·h/mL in series [1] (Median AUC0–8hr [Min, Max], plasma binimetinib, 2nd section, Cycle 1 Day 1 (C1D1), Dose Level 6: AEB071 400 mg bid and MEK162 30 mg bid); 1540 ng·h/mL in series [1] (Median AUC0–8hr [Min, Max], plasma binimetinib, Cycle 1 Day 1 (C1D1), Dose Level 1: AEB071 150 mg bid and MEK162 45 mg bid); 1550 ng·h/mL in series [1] (Median AUC0–8hr [Min, Max], plasma binimetinib, Cycle 1 Day 1 (C1D1), Dose Level 2: AEB071 200 mg bid and MEK162 45 mg bid); 1130 ng·h/mL in series [1] (Median AUC0–8hr [Min, Max], plasma binimetinib, Cycle 1 Day 1 (C1D1), Dose Level 3: AEB071 300 mg bid and MEK162 30 mg bid); 1610 ng·h/mL in series [1] (Median AUC0–8hr [Min, Max], plasma binimetinib, Cycle 1 Day 1 (C1D1), Dose Level 4: AEB071 300 mg bid and MEK162 45 mg bid); 1260 ng·h/mL in series [1] (Median AUC0–8hr [Min, Max], plasma binimetinib, Cycle 1 Day 1 (C1D1), Dose Level 5: AEB071 350 mg bid and MEK162 30 mg bid). Also, in series [1] (Median AUC0–8hr [Min, Max], plasma binimetinib, Cycle 1 Day 1 (C1D1), Dose Level 6: AEB071 400 mg bid and MEK162 30 mg bid), the area under the curve AUC(0-t) is 985 ng·h/mL. The Cmax (in general, the highest concentration seen after dosing) worked out at 493 ng/mL in series [1] (setting [7]); 410 ng/mL in series [1] (Max], plasma binimetinib, 2nd section, Cycle 1 Day 1 (C1D1), Dose Level 2: AEB071 200 mg bid and MEK162 45 mg bid); 246 ng/mL in series [1] (setting [8]); 391 ng/mL in series [1] (setting [9]); 280 ng/mL in series [1] (setting [10]); 346 ng/mL in series [1] (setting [11]). Also, the maximum concentration (Cmax) in series [1] (setting [12]) came to 366 ng/mL; in series [1] (setting [13]), 450 ng/mL; in series [1] (setting [14]) it was 213 ng/mL; in series [1] (setting [15]), 370 ng/mL; in series [1] (setting [16]) it was 259 ng/mL; in series [1] (setting [17]), 279 ng/mL. The Tmax – broadly, the time at which the peak concentration occurs – amounted to 2 h in series [1] (setting [7]); 3 h in series [1] (setting [8]); 2.9 h in series [1] (setting [9]); 1.9 h in series [1] (setting [10]); 1.5 h in series [1] (setting [11]); 1.1 h in series [1] (setting [12]). The Tmax in series [1] (setting [13]) turned out to be 1.1 h; in series [1] (setting [14]), 2 h; in series [1] (setting [15]), 4 h; in series [1] (setting [16]) it was 2 h; in series [1] (setting [17]), 1.1 h. For the same compound, in series [1] (plasma binimetinib, 2nd section, Cycle 1 Day 1 (C1D1), Dose Level 2: AEB071 200 mg bid and MEK162 45 mg bid), the “Median AUC0–8hr [Min; Max]” value was 2137.7 [1121.6; 2772.3] hr*ng/ml. Besides, the Dose reductions applied in series [2] is given as 65.8%.

`CN1CCN(c2nc(C3=C(c4c[nH]c5ccccc45)C(=O)NC3=O)c3ccccc3n2)CC1` [sotrastaurin]: the “median RACC, range at different doses of sotrastaurin” value in series [3] is reported as 0.72-1.15. Also, the AUC(0-t) in series [4] (150 mg) was 6070 ng·h/mL; in series [4] (400 mg), 21600 ng·h/mL. For the same compound, in series [1] (exposure on day 15 compared with day 1), the “accumulation of sotrastaurin following b.i.d. dosing” value was “no observed accumulation”. Moreover, the Dose reductions applied in series [2] turned out to be 76.3%.

For the compound “tebentafusp: agent improving overall survival in previously untreated HLA-A*0201 positive metastatic uveal melanoma patients”, in series [5], the “hazard ratio for death” value was 0.51 and the “reduction in the risk of death” value was 49%.
